Reference: patent US7786141B2 (Vertex Pharmaceuticals Incorporated, priority 2004, dated 2010)

Columns and labels:
M1 muscarinic receptor = target: T1, M1 muscarinic receptor (Homo sapiens, UniProt P11229); experiment: Functional mobilization of intracellular calcium (FLIPR) in M1-CHO cells; type: cell-based; conditions: M1 receptor, calcium mobilization; for Emax: read-out: M1 Efficacy
T1 construct: expressed in transfected cells; host or cells: CHO (M1-CHO)
T1 sequence (P11229 1-460): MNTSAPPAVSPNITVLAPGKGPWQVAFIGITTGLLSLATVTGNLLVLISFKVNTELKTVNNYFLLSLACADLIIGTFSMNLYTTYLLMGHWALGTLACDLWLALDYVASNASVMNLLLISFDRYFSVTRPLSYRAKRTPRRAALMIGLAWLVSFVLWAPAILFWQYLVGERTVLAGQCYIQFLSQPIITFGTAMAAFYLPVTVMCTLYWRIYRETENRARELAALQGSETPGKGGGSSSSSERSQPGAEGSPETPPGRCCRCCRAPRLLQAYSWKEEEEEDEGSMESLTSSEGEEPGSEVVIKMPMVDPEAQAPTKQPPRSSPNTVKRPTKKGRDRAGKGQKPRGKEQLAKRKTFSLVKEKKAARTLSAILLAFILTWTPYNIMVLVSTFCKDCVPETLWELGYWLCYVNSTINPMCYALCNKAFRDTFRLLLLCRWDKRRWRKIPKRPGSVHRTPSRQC
Summary of the method: (§1)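 FLIPR Ca2+ read, ex 488/em 540 nm, 60 s. Recombinant CHO lines (M1 or M4), dye-loaded Fluo-3 AM 60-90 min at 37° C, probenecid 1 mM, pH 7.4. Agonist: compound alone; inhibition: 15 min compound pre-incubation, then carbachol at EC80 for that subtype.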

M4 muscarinic receptor = target: T2, M4 muscarinic receptor (Homo sapiens, UniProt P08173); experiment: Functional mobilization of intracellular calcium (FLIPR) in M4-CHO cells; type: cell-based; conditions: M4 receptor, calcium mobilization; for Emax: read-out: M4 Efficacy
T2 construct: expressed in transfected cells; host or cells: CHO (M4-CHO)
T2 sequence (P08173 1-479): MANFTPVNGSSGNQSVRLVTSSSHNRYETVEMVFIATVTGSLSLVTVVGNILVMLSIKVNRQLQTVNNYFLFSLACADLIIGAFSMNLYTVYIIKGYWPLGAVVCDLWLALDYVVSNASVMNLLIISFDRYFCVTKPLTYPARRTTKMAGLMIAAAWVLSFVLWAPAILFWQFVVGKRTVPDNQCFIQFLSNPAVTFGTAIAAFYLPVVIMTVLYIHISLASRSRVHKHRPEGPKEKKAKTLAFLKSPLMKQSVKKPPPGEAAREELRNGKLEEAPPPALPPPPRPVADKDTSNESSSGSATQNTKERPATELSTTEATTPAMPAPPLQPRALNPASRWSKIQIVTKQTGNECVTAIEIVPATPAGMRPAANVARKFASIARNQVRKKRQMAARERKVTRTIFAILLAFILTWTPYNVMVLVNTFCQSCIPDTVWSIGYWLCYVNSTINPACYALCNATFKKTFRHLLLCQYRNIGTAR
Summary of the method: as §1

Structure (SMILES) | M1 Activity (M1 muscarinic receptor) | M1 Efficacy (M1 muscarinic receptor) | M4 Activity (M4 muscarinic receptor) | M4 Efficacy (M4 muscarinic receptor) | Emax (M1 muscarinic receptor) [%] | Emax (M4 muscarinic receptor) [%]
CCCOC(=O)N1C2CCC1CC(N1CCC3(CC1)CN(C(=O)O[C@@H]1CCOC1)c1ccc(F)cc13)C2 (stereo partly drawn) [compound 297] | x (activity was measured to be greater than 1.0 μM) | xx (efficacy was calculated to be between 85% and 65%) | x (activity was measured to be greater than 1.0 μM) | xx (efficacy was calculated to be between 85% and 65%) | – | –
CCOC(=O)N1C2CCC1CC(N1CCC3(CC1)CN(C(=O)Oc1ccc(F)cc1)c1ccc(F)cc13)C2 (stereo not drawn) [compound 298] | x (activity was measured to be greater than 1.0 μM) | – | x (activity was measured to be greater than 1.0 μM) | – | < 65 | 65 to 85
Fc1ccc2c(c1)C1(CCN(C3CCOCC3)CC1)CN2 [compound 299] | x (activity was measured to be greater than 1.0 μM) | – | x (activity was measured to be greater than 1.0 μM) | – | 65 to 85 | 65 to 85
Fc1ccc2c(c1)C1(CCN(C[C@H]3C[C@H]4CC[C@H]3O4)CC1)CN2 [compound 300] | xx (activity was measured to be between 0.1 μM and 1.0 μM) | – | x (activity was measured to be greater than 1.0 μM) | – | 65 to 85 | < 65
O=C(O[C@H]1CCOC1)N1C2CCC1CC(N1CCC3(CC1)C(=O)Nc1ccccc13)C2 (stereo partly drawn) [compound 301] | x (activity was measured to be greater than 1.0 μM) | – | x (activity was measured to be greater than 1.0 μM) | – | < 65 | < 65
CCCOC(=O)N1C2CCC1CC(N1CCC3(CC1)CN(C(=O)C1CCC1)c1ccc(F)cc13)C2 (stereo not drawn) [compound 302] | x (activity was measured to be greater than 1.0 μM) | – | x (activity was measured to be greater than 1.0 μM) | – | < 65 | < 65
CCOC(=O)N1CCC(N2CCC3(CC2)CN(CC(=O)CC)c2ccc(F)cc23)CC1 [compound 303] | xx (activity was measured to be between 0.1 μM and 1.0 μM) | – | x (activity was measured to be greater than 1.0 μM) | – | > 85 | < 65
COCCOC(=O)N1CC2(CCN(C3CC4CCC(C3)N4C(=O)O[C@@H]3CCOC3)CC2)c2cc(F)ccc21 (stereo partly drawn) [compound 304] | xxx (activity was measured to be less than 0.1 μM) | – | x (activity was measured to be greater than 1.0 μM) | – | 65 to 85 | < 65
CC(=O)NC1CC2(CCN(CC3CC4C=CC3C4)CC2)c2ccccc21 (stereo not drawn) [compound 305] | x (activity was measured to be greater than 1.0 μM) | x (efficacy was calculated to be less than 65%) | x (activity was measured to be greater than 1.0 μM) | x (efficacy was calculated to be less than 65%) | – | –
CCCOC(=O)N1CCC(CN2CCC3(CC2)CN(C(C)=O)c2ccc(C)cc23)CC1 [compound 306] | x (activity was measured to be greater than 1.0 μM) | – | x (activity was measured to be greater than 1.0 μM) | – | < 65 | < 65
CCOC(=O)N1CCC(CN2CCC3(CC2)CN(C(C)=O)c2c(F)cccc23)CC1 [compound 307] | xx (activity was measured to be between 0.1 μM and 1.0 μM) | – | x (activity was measured to be greater than 1.0 μM) | – | 65 to 85 | < 65
CCOC(=O)N1C2CCC1CC(N1CCC3(CC1)CN(C(=O)c1ccncc1)c1ccc(F)cc13)C2 (stereo not drawn) [compound 308] | xxx (activity was measured to be less than 0.1 μM) | – | x (activity was measured to be greater than 1.0 μM) | – | > 85 | < 65
CCOC(=O)N1CCCC(N2CCC3(CC2)CN(C(C)=O)c2ccc(F)cc23)CC1 (stereo not drawn) [compound 309] | xx (activity was measured to be between 0.1 μM and 1.0 μM) | – | x (activity was measured to be greater than 1.0 μM) | – | > 85 | < 65
CCOC(=O)N1C2CCC1CC(N1CCC3(CC1)CNc1ccc(F)cc13)C2 (stereo not drawn) [compound 310] | xx (activity was measured to be between 0.1 μM and 1.0 μM) | – | x (activity was measured to be greater than 1.0 μM) | – | < 65 | < 65
COCCOC(=O)N1C2CCC1CC(N1CCC3(CC1)CN(C(=O)C1CC1)c1ccc(F)cc13)C2 (stereo not drawn) [compound 311] | xxx (activity was measured to be less than 0.1 μM) | – | x (activity was measured to be greater than 1.0 μM) | – | 65 to 85 | 65 to 85
COC(=O)N1CCC(N2CCC3(CC2)CN(C(C)=O)c2ccc(C)cc23)CC1 [compound 312] | x (activity was measured to be greater than 1.0 μM) | – | x (activity was measured to be greater than 1.0 μM) | – | < 65 | < 65
C1=C[C@H]2C[C@H]1C[C@H]2CN1CCC2(CCc3ccccc32)CC1 [compound 313] | x (activity was measured to be greater than 1.0 μM) | – | x (activity was measured to be greater than 1.0 μM) | – | < 65 | < 65
COC(=O)N1C2CCC1CC(N1CCC3(CC1)CN(C(=O)N(C)C)c1ccc(F)cc13)C2 (stereo not drawn) [compound 314] | xx (activity was measured to be between 0.1 μM and 1.0 μM) | – | x (activity was measured to be greater than 1.0 μM) | – | < 65 | < 65
CCOC(=O)N1CCC(C)(CN2CCC3(CC2)C[C@H](NC(C)=O)c2ccccc23)CC1 [compound 315] | x (activity was measured to be greater than 1.0 μM) | – | x (activity was measured to be greater than 1.0 μM) | – | < 65 | < 65
C#CCOC(=O)N1CCC(CN2CCC3(CC2)CN(C(C)=O)c2ccc(F)cc23)CC1 [compound 316] | x (activity was measured to be greater than 1.0 μM) | – | x (activity was measured to be greater than 1.0 μM) | – | < 65 | < 65
CCOC(=O)N1CCC(N2CCC3(CC2)CN(C(=O)CC)c2ccc(F)cc23)CC1 [compound 317] | x (activity was measured to be greater than 1.0 μM) | – | x (activity was measured to be greater than 1.0 μM) | – | < 65 | < 65
CCOC(=O)N1C2CCC1CC(N1CCC3(CC1)CC(NC(C)=O)c1ccccc13)C2 (stereo not drawn) [compound 318] | xxx (activity was measured to be less than 0.1 μM) | – | xxx (activity was measured to be less than 0.1 μM) | – | 65 to 85 | > 85
CCOC(=O)N1CCC(CN2CCC3(CC2)C(=O)Nc2ccccc23)CC1 [compound 319] | xx (activity was measured to be between 0.1 μM and 1.0 μM) | – | x (activity was measured to be greater than 1.0 μM) | – | < 65 | < 65
CC(C)OC(=O)N1C2CCC1CC(N1CCC3(CC1)COc1ccc(F)cc13)C2 (stereo not drawn) [compound 320] | xx (activity was measured to be between 0.1 μM and 1.0 μM) | – | x (activity was measured to be greater than 1.0 μM) | – | 65 to 85 | < 65
